# Target: T1, human Flt-3 (Homo sapiens, UniProt P36888)
# T1 construct: expresses the amino acid region amino acids 563-993 of the intra-cytoplasmic kinase domains of human Flt-3; made in house; host or cells: Sf9 insect cells (baculovirus, pFbacG01 donor vector)
# T1 sequence (P36888 563-993): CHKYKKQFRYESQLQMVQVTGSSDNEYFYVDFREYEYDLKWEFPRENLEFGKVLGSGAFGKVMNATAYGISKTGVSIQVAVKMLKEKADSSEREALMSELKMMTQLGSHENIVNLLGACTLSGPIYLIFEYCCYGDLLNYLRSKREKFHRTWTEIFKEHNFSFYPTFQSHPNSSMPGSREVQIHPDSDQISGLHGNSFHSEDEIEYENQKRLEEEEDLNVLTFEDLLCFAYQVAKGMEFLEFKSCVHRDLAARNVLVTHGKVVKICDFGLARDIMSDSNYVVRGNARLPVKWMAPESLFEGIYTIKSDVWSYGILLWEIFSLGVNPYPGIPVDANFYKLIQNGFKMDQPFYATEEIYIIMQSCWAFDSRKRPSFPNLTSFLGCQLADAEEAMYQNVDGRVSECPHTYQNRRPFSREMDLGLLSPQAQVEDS
# Test: Tyrosine protein kinase assay with purified GST-Flt-3 (33P incorporation)
# Assay type: biochemical
# Conditions: at a 1.0 micromolar concentration
# Method: ATP into appropriate substrates.
# The coding sequences for the cytoplasmic domain of Flt-3 was amplified by PCR from human c-DNA libraries (Clontech). The amplified DNA fragments and the pFbacG01 vector were made compatible for ligation by digestion with BamH1 and Hind III. […] The production of the viruses, the expression of proteins in Sf9 cells and the purification of the GST-fused proteins were performed as following:
# (Generation of Bac- to Bac GST-fusion vectors); pFbacG01, pFbacGST2T and pFbacGSTx3 Bac-to-Bac™ donor vectors were generated from pAcG1, pAcG2T and pAcG3X respectively, which facilitate the expression of GST-fusion proteins with the possibility of cleavage with thrombin (pFbacGT2) or factor Xa (pFbacGSTx3) while pFbacG01 expresses no proteolytic cleavage site. These were generated in house by isolation of the DNA fragment containing the gene for GST with the C-terminal protease and restriction sites by restriction enzyme digestion of the relevant PharMingen baculovirus donor vector with EcoRV and EcoRI. This EcoRV/EcoRI fragment was ligated into the pFastBac1 vector which had been restriction digested with BamHI, blunt-ended by Klenow reaction and subsequently digested with EcoRI to generate a blunt-ended/EcoRI vector. (Production of virus); Transfer vectors containing the kinase domains were transfected into the DH10Bac cell line (GIBCO) and plated on selective agar plates. Colonies without insertion of the fusion sequence into the viral genome (carried by the bacteria) are blue. Single white colonies were picked and viral DNA (bacmid) isolated from the bacteria by standard plasmid purification procedures. Sf9 cells or Sf21 cells were then transfected in 25 cm^2 flasks with the viral DNA using Cellfectin reagent. (Determination of small scale protein expression in Sf9 cells); Virus containing media was collected from the transfected cell culture and used for infection to increase its titer. Virus containing media obtained after two rounds of infection was used for large-scale protein expression. For large-scale protein expression 100 cm^2 round tissue culture plates were seeded with 5×10^7 cells/plate and infected with 1 mL of virus-containing media (approx. 5 MOIs). After 3 days the cells were scraped off the plate and centrifuged at 500 rpm for 5 min. Cell pellets from 10-20, 100 cm^2 plates, were resuspended in 50 mL of ice-cold lysis buffer (25 mMTris-HCl, pH7.5, 2 mMEDTA, 1% NP-40, 1 mM DTT, 1 mMP MSF). The cells were stirred on ice for 15 min and then centrifuged at 5000 rpms for 20 min.
# ATP 0.1 μCi). […] ATP into appropriate substrates. […] Subsequently, 40 μL of the reaction mixture were transferred onto Immobilon-PVDF membrane (Millipore, Bedford, Mass., USA) previously soaked for 5 min with methanol, rinsed with water, then soaked for 5 min with 0.5% H3PO4 and mounted on vacuum manifold with disconnected vacuum source. After spotting all samples, vacuum was connected and each well rinsed with 200 μL 0.5% H3PO4. Membranes were removed and washed 4× on a shaker with 1.0% H3PO4, once with ethanol. Membranes were counted after drying at ambient temperature, mounting in Packard TopCount 96-well frame, and addition of 10 μL/well of Microscint™ (Packard). […] One unit of protein kinase activity is defined as 1 nmole of ^33P ATP transferred from [γ^33P] ATP to the substrate protein per minute per mg of protein at 37° C.
row,Molecule,Flt3 Inhibition (percent inhibition of Flt3 kinase activity)
1,"COC1C(N(C)C(=O)CCN)CC2OC1(C)n1c3ccccc3c3c4c(c5c6ccccc6n2c5c31)C(=O)NC4.Cl (stereo not drawn) [124078-41-7, [9S-(9a,10b,11b,13a)]-3-Amino-N-(2,3,10,11,12,13-hexahydro-10-methoxy-9-methyl-1-oxo-9,13-epoxy-1H,9H-diindolo[1,2,3-gh:3′,2′,1′-lm]pyrrolo[3,4-j][1,7]benzodiazonin-11-yl)-N-methyl-propanamide, monohydrochloride]",99%
2,"COC1C(N(C)C(=O)c2ccc(O)cc2)CC2OC1(C)n1c3ccccc3c3c4c(c5c6ccccc6n2c5c31)C(=O)NC4 [165815-73-6, N-[(9S,10R,11R,13R)-2,3,10,11,12,13-Hexahydro-10-methoxy-9-methyl-1-oxo-9,13-epoxy-1H,9H-diindolo[1,2,3-gh:3′,2′,1′-lm]pyrrolo[3,4-j][1,7]benzodiazonin-11-yl]-4-hydroxy-N-methyl-benzamide]",91%
3,"COC1C(N(C)CC(=O)O)CC2OC1(C)n1c3ccccc3c3c4c(c5c6ccccc6n2c5c31)C(=O)NC4 (stereo not drawn) [120685-22-5, [9S-(9a,10b,11b,13a)]-N-(2,3,10,11,12,13-Hexahydro-10-methoxy-9-methyl-1-oxo-9,13-epoxy-1H,9H-diindolo[1,2,3-gh:3′,2′,1′-lm]pyrrolo[3,4-j][1,7]benzodiazonin-11-yl)-N-methyl-glycine]",98%
4,"(9a,10b,11b,13a)-11-[(N-Acetyl-4,6-di-O-acetyl-a-muramoyl)methylamino]-2,3,10,11,12,13-hexahydro-10-methoxy-9-methyl-9,13-epoxy-1H,9H-diindolo[1,2,3-gh:3′,2′,1′-lm]pyrrolo[3,4-j][1,7]benzodiazonin-1-one [149622-65-1]",74%
5,"(9a,10b,11b,13a)-11-[(N-Acetyl-6-amino-1,6-dideoxymuramoyl)methylamino]-2,3,10,11,12,13-hexahydro-10-methoxy-9-methyl-9,13-epoxy-1H,9H-diindolo[1,2,3-gh:3′,2′,1′-lm]pyrrolo[3,4-j][1,7]benzodiazonin-1-one, monomethanesulfonate [150654-80-1]",97%
6,"[9S-(9a,10b,11b,13a)]-N-(2,3,10,11,12,13-Hexahydro-10-methoxy-9-methyl-1-oxo-9,13-epoxy-1H,9H-diindolo[1,2,3-gh:3′,2′,1′-lm]pyrrolo[3,4-j][1,7]benzodiazonin-11-yl)-N-methyl-2-[(tetrahydro-2H-pyran-4-yl)oxy]-acetamide [160251-52-5]",94%
7,"(9a,10b,11b,13a)-N-(2,3,10,11,12,13-Hexahydro-10-methoxy-9-methyl-1-oxo-9,13-epoxy-1H,9H-diindolo[1,2,3-gh:3′,2′,1′-lm]pyrrolo[3,4-j][1,7]benzodiazonin-11-yl)-N-methyl-4-nitro-benzamide [120685-46-3]",81%
8,"(9a,10b,11b,13a)-11-[[N-Acetyl-6-azido-6-deoxy-1-O-(phenylmethyl)-a-muramoyl]methylamino]-2,3,10,11,12,13-hexahydro-10-methoxy-9-methyl-,9,13-epoxy-1H,9H-diindolo[1,2,3-gh:3′,2′,1′-lm]pyrrolo[3,4-j][1,7]benzodiazonin-1-one [149622-42-4]",61%
9,"COC1C(N(C)C(=O)CN)CC2OC1(C)n1c3ccccc3c3c4c(c5c6ccccc6n2c5c31)C(=O)NC4.Cl (stereo not drawn) [124151-42-4, [9S-(9a,10b,11b,13a)]-2-Amino-N-(2,3,10,11,12,13-hexahydro-10-methoxy-9-methyl-1-oxo-9,13-epoxy-1H,9H-diindolo[1,2,3-gh:3′,2′,1′-lm]pyrrolo[3,4-j][1,7]benzodiazonin-11-yl)-N-methyl-acetamide, monohydrochloride]",97%
10,"(9a,10b,11b,13a)-11-[[N-Acetyl-6-amino-6-deoxy-1-O-(phenylmethyl)-a-muramoyl]methylamino]-2,3,10,11,12,13-hexahydro-10-methoxy-9-methyl-9,13-epoxy-1H,9H-diindolo[1,2,3-gh:3′,2′,1′-lm]pyrrolo[3,4-j][1,7]benzodiazonin-1-one, monomethanesulfonate [150622-14-3]",99%
11,"COC1C(N(C)C(=O)C(C)OC2CCOCC2)CC2OC1(C)n1c3ccccc3c3c4c(c5c6ccccc6n2c5c31)C(=O)NC4 (stereo not drawn) [160251-50-3, [9S-[9a,10b,11b(S*),13a]]-N-(2,3,10,11,12,13-Hexahydro-10-methoxy-9-methyl-1-oxo-9,13-epoxy-1H,9H-diindolo[1,2,3-gh:3′,2′,1′-lm]pyrrolo[3,4-j][1,7]benzodiazonin-11-yl)-N-methyl-2-[(tetrahydro-2H-pyran-4-yl)oxy]-propanamide]",89%
12,"CO[C@@H]1[C@H](N(C)C(=O)CCC(=O)[O-])C[C@H]2O[C@]1(C)n1c3ccccc3c3c4c(c5c6ccccc6n2c5c31)C(=O)NC4.[Na+] [120685-10-1, [9S-(9a,10b,11b,13a)]-4-[(2,3,10,11,12,13-Hexahydro-10-methoxy-9-methyl-1-oxo-9,13-epoxy-1H,9H-diindolo[1,2,3-gh:3′,2′,1′-lm]pyrrolo[3,4-j][1,7]benzodiazonin-11-yl)methylamino]-4-oxo-butanoic acid, sodium salt]",98%
13,"C=CCNC(=S)N(C)C1CC2OC(C)(C1OC)n1c3ccccc3c3c4c(c5c6ccccc6n2c5c31)C(=O)NC4 (stereo not shown) [120685-39-4, (9a,10b,11b,13a)-N-(2,3,10,11,12,13-Hexahydro-10-methoxy-9-methyl-1-oxo-9,13-epoxy-1H,9H-diindolo[1,2,3-gh:3′,2′,1′-lm]pyrrolo[3,4-j][1,7]benzodiazonin-11-yl)-N-methyl-N′-2-propenyl-thiourea]",93%
14,"CC[N+](C)(C)C1CC2OC(C)(C1OC)n1c3ccccc3c3c4c(c5c6ccccc6n2c5c31)C(=O)NC4.[I-] (stereo not drawn) [120685-28-1, N-Ethyl-[9S-(9a,10b,11b,13a)]-2,3,10,11,12,13-hexahydro-10-methoxy-N,N,9-trimethyl-1-oxo-9,13-epoxy-1H,9H-diindolo[1,2,3-gh:3′,2′,1′-lm]pyrrolo[3,4-j][1,7]benzodiazonin-11-aminium iodide]",100%
15,"(9a,10b,11b,13a)-11-[(N-Acetyl-6-amino-6-deoxy-a-isomuramoyl)methylamino]-2,3,10,11,12,13-hexahydro-10-methoxy-9-methyl-9,13-epoxy-1H,9H-diindolo[1,2,3-gh:3′,2′,1′-lm]pyrrolo[3,4-j][1,7]benzodiazonin-1-one [149622-56-0]",100%
16,"(9a,10b,11b,13a)-11-[(N-Acetyl-6-amino-6-deoxy-b-muramoyl)methylamino]-2,3,10,11,12,13-hexahydro-10-methoxy-9-methyl-9,13-epoxy-1H,9H-diindolo[1,2,3-gh:3′,2′,1′-lm]pyrrolo[3,4-j][1,7]benzodiazonin-1-one [149713-77-9]",96%
